Results published in US10568886B2, “Targeting Cyb5R3” (University of Pittsburgh—Of the Commonwealth System of …, priority 2014, dated 2020).

Experiments:
purified human CyB5R3 [1] = biological target: T1, purified human CyB5R3 (Homo sapiens, UniProt P00387); assay: NADH-ferricyanide reductase activity inhibition assay with purified Cyb5R3; format: biochemical; conditions: 50 μM of each compound
T1 construct: His6 (N); made in house; host or cells: E. coli SoluBL21 (Genlantis)
T1 sequence (P00387 1-301): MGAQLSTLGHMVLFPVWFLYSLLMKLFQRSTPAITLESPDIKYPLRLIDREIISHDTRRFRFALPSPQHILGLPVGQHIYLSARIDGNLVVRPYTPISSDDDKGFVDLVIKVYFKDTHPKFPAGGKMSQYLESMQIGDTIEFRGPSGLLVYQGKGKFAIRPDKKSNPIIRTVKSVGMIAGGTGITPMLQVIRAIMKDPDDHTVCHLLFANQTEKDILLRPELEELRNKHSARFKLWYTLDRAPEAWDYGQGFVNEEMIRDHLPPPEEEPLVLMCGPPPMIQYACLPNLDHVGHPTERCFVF

purified human CyB5R3 [2] = biological target: T1, purified human CyB5R3; assay: as above; format: biochemical; conditions: for Cyb5R3 inhibitory activity, SAR trend of phenyl substituents: para position: carbon, chlorine, bromine
Procedure: FIG. 13. […] Primary screen using purified human CyB5R3 was incubated with each compound (500 μM) followed by activity measurements with an NADH-ferricyanide reductase assay. […] Purified proteins were prepared as previously described in Sparacino-Watkins et al. Briefly, human Cyb5R3 gene was cloned into the pET28a plasmid containing a His6 tag on the N-terminus of Cyb5R3. The plasmid was transformed into SoluBL21 cells (Genlantis) and protein purification was carried out as previously described. […] Chromatographic separation was conducted with an Äkta-Purifier FPLC (GE Healthcare Life Sciences, USA) running Unicorn software version 5.1. Metal affinity chromatography resin, Ni-NTA superflow (Qiagen), was packed into a XK 26/20 column (GE). Protein identity was confirmed with liquid chromatography and tandem mass spectrometry (LC-MS/MS, University of Pittsburgh Genome and Protein Core Facilities). The NADH-ferricyanide reductase activity for purified Cyb5R3 was assayed by spectrophotometric measurements using the rate of potassium ferricyanide reduction at 420 nm, according to Strittmatter and […]. […] The reaction was started by addition of cofactor NADH and reduction of ferricyanide was followed for 2 min by recording the absorbance decrease at 420 nm using Cary 50 spectrophotometer and small glass cuvettes with a 0.2 cm path length. Since NADH has partial reduction power independent of Cyb5R3, the reaction rate was corrected by subtracting the reaction rate of ferricyanide in the absence of enzyme. The enzyme activity was calculated using the extinction coefficient of 1.02 mM^-1 cm^-1 for the difference in absorbance between reduced and oxidized form of ferricyanide. In order to observe the inhibitory effect of each Cyb5R3 small molecule inhibitor, the compounds were pre-incubated with Cyb5R3 at 37° C. for 15 minutes followed by measurements in NADH-ferricyanide reductase activity as described above.

[3] = tested on: sGC-Cyb5R3 macromolecular complexes; assay: Proximity ligation assay for sGC-Cyb5R3 complexes in VSMs; format: cell-based; conditions: ODQ 10 μM, 10 min, primary rat aortic VSMs
From the text: FIG. 2. […] Cells were then subjected to a proximity ligation assay and imaged using confocal microscopy for sGC-Cyb5R3 macromolecular complexes (red punctates). Quantification of complexes per nuclei is shown in graph (n=3). **** indicates significance of <0.0001 and error bars are s.e.m. […] Following ODQ treatment, VSMs were fixed and subjected to a proximity ligation assay (PLA) to determine the association between oxidized sGC and Cyb5R3.

Cyb5R3 = conditions: previous studies; cited from earlier work
oxidized sGC = assay: Purified Cyb5R3/oxidized sGC cGMP assay stimulated with Bay 58-2667; format: biochemical; conditions: 100 nM Bay 58-2667, in the presence of Cyb5R3
Procedure: FIG. 4. Purified Cyb5R3 directly reduces oxidized sGC resulting in limited stimulation by the sGC activator Bay 58-2667. Purified Cyb5R3, Cyb5b and oxidized sGC were mixed and incubated in trienthanolamine buffer, DTT (positive control), ZINC 747 (Cyb5R3 inhibitor), +/−NADH (required co-factor for Cyb5R3) in the absence of oxygen. Samples were then combined with GTP, and Mn^2+ followed by stimulation with 100 nM Bay 58-2667. After 5 min, reactions were stopped and samples were measured for cGMP. Quantification of cGMP is shown in the graph (n=2). Error bars represent s.e.m.

primary rat VSMs = assay: Rescue of sGC protein degradation by Bay 58-2667 in VSMs (Western blot); format: cell-based; conditions: Cyb5R3 knockdown or ZINC 747 treated VSMs
From the text: FIG. 7. Bay 58-2667 rescues sGC protein degradation following Cyb5R3 knockdown or activity inhibition. a, Western blot analysis for sGC expression in primary rat VSMs treated with and without Bay 58-2667 following Cyb5R3 knockdown or with ZINC 39395747 (b). Quantification of sGC expression is shown in the graph below (n=2). Error bars represent s.e.m.
It was therefore tested if Bay 58 2667 could rescue the effects caused by decreased Cyb5R3 expression and activity.

Compound | inhibition of CyB5R3, secondary screen (purified human CyB5R3 [1]) | inhibition of CyB5R3, primary screen (purified human CyB5R3 [2]; 500 μM of each compound) | further results
O=c1cc(CSc2ccccc2)[nH]c(=S)[nH]1 [ZINC05626394] | 100% | 100% | 
CCCCCOc1cc(=O)[nH]c(=S)[nH]1 [ZINC13957379] |  | 100% | 
O=c1cc(CSc2ccc(Br)cc2)[nH]c(=S)[nH]1 [ZINC15987502] |  |  | Cyb5R3 inhibitory activity, SAR trend of phenyl substituents (purified human CyB5R3 [2]): activity increases with atomic mass
O=c1cc(CSc2ccccc2)[nH]c(=O)[nH]1 [ZINC17744101] | 50% | 100% | 
O=c1onc2cnc3ccccc3n12 [ODQ, 1H-(1,2,4)oxadiazolo[4,3-a]quinoxalin-1-one] |  |  | number of sGC-Cyb5R3 macromolecular complexes [3]: increases number of macromolecular complexes
CCCc1cc(=O)[nH]c(=S)[nH]1 [PTU, propylthiouracil, reference compound] | little inhibition |  | inhibition at 500 µM (purified human CyB5R3 [2]; 500 μM of each compound, read-out: inhibition of CyB5R3, primary screen): ~100%; concentration showing inhibition of Cyb5R3 (Cyb5R3): approximately 275 μM
C[C@@H]1N=C(CSc2ccccc2)CC(=O)N1 [ZINC05774833] |  | abolished all inhibitory effects | 
O=C(O)CCCCN(CCc1ccccc1OCc1ccc(CCc2ccccc2)cc1)Cc1ccc(C(=O)O)cc1 [Bay 58-2667, cinaciguat] |  |  | cGMP production on Bay 58-2667 stimulation (oxidized sGC): does not increase cGMP production; sGC protein levels (primary rat VSMs): restoration of sGC protein levels
Cc1ccc(SCc2cc(=O)[nH]c(=S)[nH]2)cc1 [ZINC06493891] |  |  | Cyb5R3 inhibitory activity, SAR trend of phenyl substituents (purified human CyB5R3 [2]): activity increases with atomic mass
CC(C)SCc1cc(=O)[nH]c(=S)[nH]1 [ZINC31773411] |  | 100% | 
